The source made the active and inactive calls. The rule behind the calls is not given here.
Columns and labels:
[1] = system: PC-12; assay: Induction of neurite outgrowth in rat PC12 cells assessed as increase in neurite length at 30 uM incubated for 48 hrs by phase contrast microscopy; type: functional, cell-based
[2] = system: PC-12; assay: Induction of neurite outgrowth in rat PC12 cells assessed as increase in neurite length at 1 uM incubated for 48 hrs by phase contrast microscopy; type: functional, cell-based
[3] = system: PC-12; assay: Induction of neurite outgrowth in rat PC12 cells assessed as increase in neurite length at 10 uM incubated for 48 hrs by phase contrast microscopy; type: functional, cell-based
[4] = system: PC-12; assay: Cytotoxicity against rat PC12 cells assessed as reduction in cell viability at 10 uM incubated for 48 hrs; type: cell-based; details: pc-12, 48 h
[5] = system: PC-12; assay: Cytotoxicity against rat PC12 cells assessed as reduction in cell viability at >5 uM incubated for 48 hrs; type: cell-based; details: pc-12, 48 h
[6] = system: PC-12; assay: Induction of neurite outgrowth in rat PC12 cells assessed as increase in neurite length incubated for 48 hrs by phase contrast microscopy; type: functional, cell-based

## O=C(Oc1ccccc1)c1cccc(O)c1O
[1]
  Activity: Active

## CCCCCCCCCCCCCCOC(=O)c1ccn[nH]1
[2]
  Activity: inactive

## CCCCCCCCCCCCCCOC(=O)c1csc(N)n1
[2]
  Activity: inactive

## CCCCCc1ccc(-c2ccc(COC(=O)c3cccc(O)c3O)cc2)cc1
[3]
  Activity: inactive

## O=C(OCCCCc1ccccc1)c1cccc(O)c1O
[1]
  Activity: inactive

## CCCCCCCCCCCCCCOC(=O)c1cccc2nc[nH]c12
[2]
  Activity: inactive

## CCCCCCCC/C=C/c1ccc(COC(=O)c2cccc(O)c2O)cc1
[2]
  Activity: Active

## CCCCCCCCCc1ccc(COC(=O)c2cccc(O)c2O)cc1
[4]
  Activity: Toxic
[2]
  Activity: Active
[5]
  Activity: Toxic
[6]
  Activity: Dose-dependent effect

## CCCCCCCCCCCCCCOC(=O)c1cccc(O)c1O
[4]
  Activity: Toxic
[2]
  Activity: Active
[5]
  Activity: Toxic

## O=C(OCCCCCCCCCCc1ccccc1)c1cccc(O)c1O
[1]
  Activity: inactive

## CCCCCCCCCCc1ccc(OC(=O)c2cccc(O)c2O)cc1
[4]
  Activity: Toxic
[2]
  Activity: Active
[5]
  Activity: Toxic
[6]
  Activity: Dose-dependent effect

## O=C(Oc1ccc(-c2ccccc2)cc1)c1cccc(O)c1O
[3]
  Activity: inactive

## CCCCCCc1ccc(-c2ccc(OC(=O)c3cccc(O)c3O)cc2)cc1
[3]
  Activity: inactive

## O=C(OCc1ccc(-c2ccccc2)cc1)c1cccc(O)c1O
[3]
  Activity: inactive

## O=C(OCCc1ccccc1)c1cccc(O)c1O
[1]
  Activity: inactive

## CCCCCCC/C=C/c1ccc(COC(=O)c2cccc(O)c2O)cc1
[2]
  Activity: Active

## CCCCCCCCCCCCCCOC(=O)c1c(O)c(=O)[nH]c2ccccc12
[4]
  Activity: Toxic
[2]
  Activity: Active
[5]
  Activity: Toxic
[6]
  Activity: Dose-dependent effect

## O=C(OCCCc1ccccc1)c1cccc(O)c1O
[1]
  Activity: inactive

## O=C(OCc1ccccc1)c1cccc(O)c1O
[1]
  Activity: Active

## CCCCCCCCCCc1ccc(COC(=O)c2cccc(O)c2O)cc1
[2]
  Activity: Active

— ChEMBL document CHEMBL4359927, “Structural optimization and neurotrophic activity evaluation of neurotrophic gentiside derivatives” (Bioorg Med Chem Lett, 2019)
